≈ marks a conversion by molar mass, not a printed value. Where “and” joins values, the source holds several entries; their conditions need not be identical. Equal entries are not always repeated. Where two headings read alike, the source gives them in different places.
What was measured:
[1] = test system: adenosine triphosphatase (ATPase); experiment: ATPase assay in homogenate of surviving treated larvae; assay type: biochemical, Culex pipiens; conditions: larvae 24 h after treatment with LC50, untreated 1.40
Protocol: ATPase activity was performed according to Koch’s method. The reaction mixture, which contained 400 mM Na^+, 20 mM K^+, 5 mM Mg ^+, and 5 mM ATP, was prepared, and 200 μL of the crude enzyme was added to this mixture. Then, the volume was completed to 950 μL with Tris-HCl buffer (pH 7.4). After 10 min incubation at 37 °C, the reaction was stopped with 200 μL of TCA. A fresh color reagent (5 g ferrous sulfate in 10 mL ammonium molybdate solution prepared in 10 N sulfuric acid) was added to the reaction mixture. The absorbance of the developed blue color was measured at 740 nm, and the enzyme activity was calculated as OD740 min^−1 mg protein^−1.

carboxylesterase (CaE) = experiment: CaE assay in homogenate of surviving treated larvae; assay type: biochemical, Culex pipiens; conditions: larvae 24 h after treatment with LC50, untreated 3.31
Protocol: CaE activity was determined according to Van Asperen’s method, which used α-naphthyl acetate as a substrate. The assay mixture contained 50 μL of homogenate enzyme, 2.1 mL of 50 mM sodium phosphate buffer (pH 7.4), and 25 μL of 5 mM α-naphthyl acetate solution. The mixture incubation was done at 37 °C for 15 min. […] The absorption was measured at 555 nm. The enzyme activity was expressed as OD555 min^−1 mg protein^−1.

Culex pipiens larvae = experiment: Toxicity assay against C. pipiens larvae (WHO larval bioassay); assay type: in vivo; conditions: for LC50: Culex pipiens
Description: A susceptible strain of C. pipiens culture was obtained from Research Institute of Medical Entomology, Ministry of Health, Dokki, Giza, Egypt, and reared in High Institute of Public Health insectary, Alexandria University, Alexandria, Egypt. The Larvae were fed on biscuits [containing wheat flour and yeast powder mixed with milk powder (10: 1: 1, w/w, respectively)] until pupation in shallow trays containing 2–3 L of de-chlorinated water. Male adults were fed on 30% sucrose solution, and females were fed on pigeon blood four times a week in adult cages. […] The egg rafts were transferred from adult cages to white trays containing de-chlorinated water for egg hatch.
According to the World Health Organization, the larval bioassay was performed to compare the effect of nanoemulsions of selected pyrethroids with their active ingredient and commercial EC formulations on the C. pipiens larva recommendations. Third instar larvae were used in the evaluation by a direct contact method. The three forms of tested insecticides (technical, commercial EC formulation, and nanoemulsion) were tested to obtain the LC50 values. Technical pyrethroids were dissolved in DMSO and mixed with Tween-80 (0.05%), while the EC and nanoemulsions were dissolved in distilled water. Different concentrations ranging from 0.5 to 500 μg/L were tested in three replicates. Twenty C. pipiens larvae were put into plastic cups containing 100 mL of de-chlorinated water. The larvae were treated separately with Tween 80 or DMSO, and larvae without any treatment were maintained as control. The larvae’s morbidity and mortality were verified and recorded based on the larvae’s uncoordinated movement after investigating the cervical region with a needle.

[2] = test system: glutathione-S-transferase (GST); conditions: larvae 24 h after treatment with LC50, untreated 2.70
Protocol: The homogenate was centrifuged at 5000 rpm for 20 min at 4°C. The supernatant was used immediately for enzymatic assay or stored at – 20 °C. Total protein was determined according to Lowry et al.’s [23] method, and the concentrations were calculated by comparing with the standard curve of BSA.
GST assay was performed using reduced glutathione (2.5 mM) by Saint-Deniset et al. [26]. The assay mixture contained 100 μL of 1.5 mM CDNB, 200 μL of reduced glutathione, and 1.5 ml of pH 7.4 phosphate buffer. A total of 200 μL of the enzyme was added to the above mixture, shaken gently, and incubated for 15 min at 37 °C. The absorbance was recorded at 340 nm using a UV/Visible spectrophotometer (Alpha-1502. Laxco Inc, USA). One unit of enzyme activity attributed to the quantity of conjugated enzyme with 1 mmol of GSH per min. The enzyme activity was expressed as OD340 min^−1 mg protein^−1.

[3] = test system: freshwater green alga Raphidocelis subcapitata; experiment: whole plant or invertebrate; conditions: for EC50: Raphidocelis subcapitata, 96 h, read-out: 96 h EC50 (95% confidence limits); for NOEC: no observed effect concentration on algal growth rate, NOEC = EC/10
Protocol: The freshwater green alga Raphidocelis subcapitata was obtained from the Faculty of Science; Mansoura University, Egypt. The stock culture was maintained in 250-mL borosilicate Erlenmeyer flasks containing culture medium at 24 ± 2 °C, under a continuous white fluorescent light of 3000–4000 lux, and manually shaken twice a day. The axenic culture was maintained for the provision of a continuous supply of “healthy” cells for the tests in a standard algal assay medium (AAM) as described in Miller et al..
An acute algal growth inhibition test was conducted using different concentrations of each insecticide in sterile AAM in a final volume of 50 mL. Tested concentrations of a pesticide were prepared from stock solutions on an arithmetic progression covering an expected range of toxicity from 0 to 90%. Stock solutions of technical insecticides were prepared in 1% DMSO and a corresponding control was included. Stock solutions of the EC and NE were prepared. Algal suspensions were exposed to different concentrations (0.0005–500 mg/L) prepared in the same medium of algae culture. All assays were conducted in triplicate. An inoculum of the exponentially-growing culture of R. subcapitata (harvested from 4–7 days stock culture) was prepared no more than 2–3 h before the beginning of the test. Initial cell density for the growth inhibition test was 10,000 cells/ml in both test and control flasks. Zero-time begins at inoculation of all flasks with the algal cells followed by incubation for 96 h in a temperature-controlled (25 °C) orbital shaker set at 100 rpm under continuous illumination via white fluorescent lamps. After 96 h, algal growth in terms of viable cell concentration was examined in a Neubauer hemocytometer using a phase-contrast microscope. Growth rate inhibition of the alga was used as the endpoint in this assessment. The percent inhibition values were calculated after 96 h, and the median effective concentration (EC50) values were calculated from the probit analysis with 95% confidence limits. The no observed effect concentration (NOEC) after algal exposure to each tested insecticide was calculated by the formula: NOEC = EC/10 [31]. Furthermore, the hazard statement of each tested insecticide was estimated according to UNECE GHS (2019).
Statistical analysis was performed using the IBM SPSS software version 25.0 (SPSS, Chicago, IL, USA). Mortality percentages were calculated for each treatment and corrected using Abbott’s equation [34]. Means and standard error (SE) were obtained from three independent replications performed for each treatment. The log dose-response (LdP) lines were used in the determination of the LC50 values for the mosquito’s bioassay and EC50 values for the algal bioassay according to the probit analysis. The least-square regression analysis was used to determine the 95% confidence limits. Analysis of variance (ANOVA) of the biochemical data was conducted and means property values were separated (p ≤ 0.05) with Student-Newman-Keuls (SNK).

[4] = test system: C. tritaeniorhynchus larvae; set-up: method as in PMID 28245893; conditions: cited from earlier work
[5] = cited from earlier work

CC1(C)[C@H](C(=O)O[C@H](C#N)c2cccc(Oc3ccccc3)c2)[C@@H]1C=C(Br)Br [Deltamethrin, deltamethrin]
Specific activity ± SE, ATPase ([1]; listed as Deltamethrin T): 0.69 OD mg protein^−1 min and 0.69 ± 0.02 OD mg protein^−1 min | Specific activity ± SE, CaE (carboxylesterase (CaE); listed as Deltamethrin T): 4.53 OD mg protein^−1 min and 3.44 ± 0.19 OD mg protein^−1 min | Slope ± SE of the concentration mortality regression line (Culex pipiens larvae; 24 h exposure): 2.23 ± 0.13 | Slope ± SE of the concentration mortality regression line (Culex pipiens larvae; 48 h exposure): 2.12 ± 0.13 | LC50 (Culex pipiens larvae; third instar larvae, 24 h exposure, read-out: LC50): 0.028 mg/L (≈ 0.0554 µM) | LC50 (Culex pipiens larvae; third instar larvae, 48 h exposure, read-out: LC50): 0.025 mg/L (≈ 0.0495 µM) | Specific activity ± SE, GST [2]: 5.49 ± 0.60 OD mg protein^−1 min | EC50 [3]: > 100 mg/L | NOEC [3]: > 10 mg/L

CC1(C)C(C=C(Cl)Cl)C1C(=O)OCc1cccc(Oc2ccccc2)c1 (centres unmarked) [Permethrin, permethrin]
Specific activity ± SE, ATPase ([1]; listed as Permethrin T): 0.64 OD mg protein^−1 min and 0.64 ± 0.00 OD mg protein^−1 min | Specific activity ± SE, CaE (carboxylesterase (CaE)): 2.31 ± 0.09 OD mg protein^−1 min | Slope ± SE of the concentration mortality regression line (Culex pipiens larvae; 24 h exposure): 1.36 ± 0.089 | Slope ± SE of the concentration mortality regression line (Culex pipiens larvae; 48 h exposure): 1.26 ± 0.08 | LC50 (Culex pipiens larvae; 24 h): 0.322 mg/L (≈ 0.823 µM) | LC50 (Culex pipiens larvae; 48 h): 0.225 mg/L (≈ 0.575 µM) | LC50 (Culex pipiens larvae; read-out: LC50 range): 0.127 to 0.322 mg/L (≈ 0.325 to 0.823 µM) | Specific activity ± SE, GST ([2]; listed as Permethrin T): 6.32 OD mg protein^−1 min and 6.32 ± 0.59 OD mg protein^−1 min | EC50 [3]: 14.9 mg/L (≈ 38.2 µM) | NOEC [3]: 1.494 mg/L

CC1(C)C(C=C(Cl)Cl)C1C(=O)OCc1cccc(Oc2ccccc2)c1 (centres unmarked) [bulk permethrin, permethrin]
LC50 [4]: 0.442 mg/L (≈ 1.13 µM)

CC1(C)[C@H](C(=O)O[C@H](C#N)c2cccc(Oc3ccccc3)c2)[C@@H]1/C=C(\Cl)C(F)(F)F (racemic) [Lambda-cyhalothrin, lambda-cyhalothrin]
Specific activity ± SE, ATPase ([1]; listed as Lambda-cyhalothrin T): 0.62 OD mg protein^−1 min and 0.62 ± 0.05 OD mg protein^−1 min | Specific activity ± SE, CaE (carboxylesterase (CaE)): 1.51 ± 0.09 OD mg protein^−1 min | Slope ± SE of the concentration mortality regression line (Culex pipiens larvae; 24 h exposure): 1.47 ± 0.09 | Slope ± SE of the concentration mortality regression line (Culex pipiens larvae; 48 h exposure): 1.30 ± 0.09 | LC50 (Culex pipiens larvae; 24 h): 0.027 mg/L (≈ 0.06 µM) | LC50 (Culex pipiens larvae; 48 h): 0.018 mg/L (≈ 0.04 µM) | Specific activity ± SE, GST ([2]; listed as Lambda-cyhalothrin T): 4.57 OD mg protein^−1 min and 4.57 ± 0.48 OD mg protein^−1 min | EC50 [3]: 33.9 mg/L (≈ 75.3 µM) | NOEC [3]: 3.389 mg/L

CC1(C)C(C=C(Cl)Cl)C1C(=O)OC(C#N)c1cccc(Oc2ccccc2)c1 (stereo not drawn) [Alpha-cypermethrin, alpha-cypermethrin]
Specific activity ± SE, ATPase ([1]; listed as Alpha-cypermethrin T): 0.86 OD mg protein^−1 min and 0.86 ± 0.02 OD mg protein^−1 min | Specific activity ± SE, CaE (carboxylesterase (CaE)): 5.06 ± 0.15 OD mg protein^−1 min | Slope ± SE of the concentration mortality regression line (Culex pipiens larvae; 24 h exposure): 2.47 ± 0.15 | LC50 (Culex pipiens larvae; 24 h): 0.043 mg/L (≈ 0.103 µM) | LC50 (Culex pipiens larvae; 48 h): 0.04 mg/L (≈ 0.0961 µM) | Specific activity ± SE, GST ([2]; listed as Alpha-cypermethrin T): 5.31 OD mg protein^−1 min and 5.31 ± 0.70 OD mg protein^−1 min | EC50 [3]: 69.3 mg/L (≈ 167 µM) | NOEC [3]: 6.932 mg/L

C[n+]1ccc(-c2cc[n+](C)cc2)cc1 [paraquat]
96 h EC50 [5]: 0.48 mg/L
